Assay results from PMC5047629, “Synthesis, Pharmacological Profile and Docking Studies of New Sulfonamides Designed as Phosphodiesterase-4 Inhibitors” (PLoS ONE, 2016).

Tests used:
A/J mice [1] = assay: LPS-induced lung inflammation and airway hyper-reactivity; format: in vivo; settings: LASSBio-448 2.5 and 10 mg/kg oral, cilomilast 1 mg/kg oral, 1 h before LPS, 24 h post-challenge
Procedure: A/J mice were anesthetized with isoflurane aerosol and then challenged with LPS (25μg/25 μL) or phosphate buffered solution (PBS) by intranasal instillation as reported. The analyses were performed 24 h after stimulation. Treatment with LASSBio-448 (2.5–10 mg/kg/mice) or cilomilast (1 mg/kg) was performed orally, 1 h before LPS exposure. LASSBio-448 was dissolved in 0.2% Tween 80, while cilomilast was dissolved in 1 M NaOH and further neutralized with 1 N HCl, before adjusting the final volume with 0.9% NaCl solution (saline). The substances were dissolved immediately before use.
Airflow and transpulmonary pressure were recorded with a Buxco pulmonary mechanics processing system (Buxco Electronics, Sharon, CT), which calculated resistance (cmH2O.s/ml) and dynamic lung compliance (mL/cmH2O) in each breath cycle. Elastance was calculated as the inverse of compliance values. Mice were anesthetized with nembutal (60 mg/kg), and the neuromuscular activity was blocked with bromide pancuronium (1 mg/kg). Animals were allowed to stabilize for 5 min and increasing concentrations of methacholine (3–27 mg/mL) were aerosolized for 5 min each. Baseline pulmonary parameters were assessed with aerosolized phosphate buffer solution (PBS).
The MPO activity present in the lung tissue was colorimetrically determined as described by Hirano (1996), with minor changes. Briefly, after lung perfusion with 20 mM EDTA in 0.9% saline, lung samples were homogenized in Hank´s balanced solution (HBSS) at pH 7.4. The homogenates were centrifuged for 10 min at 1300 xg and 4°C. Red blood cells were removed by hypotonic and hypertonic lysis and suspended cells were re-centrifuged as described above. The pellet was then suspended in HBSS at pH 7.4 containing 0.5% hexadecyltrimethyl ammonium bromide (HTAB). The homogenates were centrifuged for 30 min at 12500 xg and 4°C. The supernatants were then collected and incubated with 0.167 mg/mL of ortho-dianisidine dihydrochloride for 15 min at 37°C, after which 0.0006% H2O2 in 50 mM phosphate buffer at pH 6 was added. The reaction was stopped 10 min later by adding 50 μL of 1% sodium azide. The measurement was done at 460 nm using the SpectraMax M5 microplate reader (Molecular Devices).

A/J mice [2] = assay: Duration of xylazine/ketamine anesthesia (behavioral correlate of emesis); format: in vivo; settings: 5.8 μmol/kg oral; n = 5; P<0.01
Procedure: This assessment was carried out as previously reported. […] The animals were placed in dorsal position and their spontaneous return to the prone position was used as an endpoint to determine anesthesia duration.

PDE3 = PDE3 activity inhibition; format: biochemical

SMILES	LPS-induced airway hyper-reactivity (lung elastance after methacholine 3–27 mg/ml) (A/J mice [1]; Fig 9A)	neutrophil infiltration into the lung tissue (MPO activity) (A/J mice [1]; Fig 9B)	reduction of sleep time (duration of xylazine/ketamine anesthesia) (A/J mice [2])	IC50 (PDE3)
COc1ccc([C@]2(C#N)CC[C@@H](C(=O)O)CC2)cc1OC1CCCC1 [cilomilast, reference compound]	blockade	blockade	28.4%	
Cc1[nH]c(=O)c(C#N)cc1-c1ccncc1 [milrinone, reference compound]				3.2 µM
